From patent US10780090B2, “Heteroaryl compounds useful as inhibitors of SUMO activating enzyme” (Millennium Pharmaceuticals, Inc., priority 2014, dated 2020) come the findings set out here.

In general, IC50 refers to the concentration needed to halve the response being measured. The inhibition is the percentage by which the read-out fell short of the control.

This assay addresses recombinant human SAE enzyme (Homo sapiens (Human), UniProt Q9UBT2). The experiment in a line: SAE HTRF enzyme assay. It is filed as biochemical. Conditions: for inhibition at 0.111 µM: read-out: Percent Inhibition. In a few lines:
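First, recombinant human SAE (0.11 nM) transfers Sumo-Flag onto Ubc9-GST using 0.5 μM ATP for 105 min at 24° C. Next, EDTA-containing detection buffer with labelled anti-Flag and anti-GST antibodies is added for 2 h. Finally, FRET is quantified and percent inhibition or IC50 derived.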
Background: TR-FRET usually uses a lanthanide donor and a delayed reading to cut background.

Where [1] appears, read: SAE inhibition at compound concentration 0.111 μM.
Setting [2] is: SAE inhibition, class symbols, legend in nM.

recombinant human SAE enzyme, sequence (Q9UBT2 whole entry): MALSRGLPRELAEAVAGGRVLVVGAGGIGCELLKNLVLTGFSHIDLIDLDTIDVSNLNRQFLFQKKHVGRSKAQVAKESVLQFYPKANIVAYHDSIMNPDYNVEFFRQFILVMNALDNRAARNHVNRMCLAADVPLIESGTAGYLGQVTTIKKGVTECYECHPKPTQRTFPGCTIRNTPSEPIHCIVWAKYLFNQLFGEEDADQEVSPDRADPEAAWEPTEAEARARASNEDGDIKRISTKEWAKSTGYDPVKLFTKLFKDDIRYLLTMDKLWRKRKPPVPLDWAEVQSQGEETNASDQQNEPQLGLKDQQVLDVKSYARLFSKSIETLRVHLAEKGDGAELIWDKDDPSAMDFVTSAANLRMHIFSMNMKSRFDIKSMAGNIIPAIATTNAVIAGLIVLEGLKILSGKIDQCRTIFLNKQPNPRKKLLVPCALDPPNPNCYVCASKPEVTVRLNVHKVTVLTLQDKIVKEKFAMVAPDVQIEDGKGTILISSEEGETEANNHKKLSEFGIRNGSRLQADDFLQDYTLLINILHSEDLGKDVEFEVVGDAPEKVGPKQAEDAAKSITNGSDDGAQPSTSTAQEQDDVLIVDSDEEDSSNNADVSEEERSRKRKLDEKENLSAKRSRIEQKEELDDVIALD
recombinant human SAE enzyme, sequence (Q9UBE0 whole entry partner): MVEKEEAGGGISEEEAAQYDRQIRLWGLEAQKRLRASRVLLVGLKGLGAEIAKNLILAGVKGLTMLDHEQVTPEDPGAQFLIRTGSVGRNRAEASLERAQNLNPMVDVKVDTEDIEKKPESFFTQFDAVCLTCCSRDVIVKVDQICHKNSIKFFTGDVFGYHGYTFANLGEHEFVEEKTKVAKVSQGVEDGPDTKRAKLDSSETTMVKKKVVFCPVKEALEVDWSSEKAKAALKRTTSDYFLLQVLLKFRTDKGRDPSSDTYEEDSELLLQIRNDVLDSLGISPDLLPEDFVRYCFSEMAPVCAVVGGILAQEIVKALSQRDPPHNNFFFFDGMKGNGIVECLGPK

On to `Cc1sc(C(=O)c2cncnc2N[C@@H]2C[C@H](COS(N)(=O)=O)[C@@H](O)C2)cc1[C@@H]1OCCn2cc(C(F)(F)F)nc21` (mixture of isomers) [I-337, [(1R,2S,4R)-2-hydroxy-4-{[5-({5-methyl-4-[(8S)-2-(trifluoromethyl)-5,6-dihydro-8H-imidazo[2,1-c][1,4]oxazin-8-yl]-2-thienyl}carbonyl)pyrimidin-4-yl]amino}cyclopentyl]methyl sulfamate and [(1R,2S,4R)-2-hydroxy-4-{[5-({5-methyl-4-[(8R)-2-(trifluoromethyl)-5,6-dihydro-8H-imidazo[2,1-c][1,4]oxazin-8-yl]-2-thienyl}carbonyl)pyrimidin-4-yl]amino}cyclopentyl]methyl sulfamate], for which the “Percent Inhibition” value under setting [1] amounted to 89%. Besides, under setting [2], the IC50 is 10 to 100 nM.

Consider `NS(=O)(=O)OC[C@H]1C[C@@H](Nc2ncncc2C(=O)c2cc(Cc3cccc(Cl)c3)c(Br)s2)C[C@@H]1O` [I-118, {(1R,2S,4R)-4-[(5-{[5-bromo-4-(3-chlorobenzyl)-2-thienyl]carbonyl}pyrimidin-4-yl)amino]-2-hydroxycyclopentyl}methyl sulfamate], for which, for the setting “Concentration 0.111 μM”, the inhibition at 0.111 µM is 97%. Further, under “class symbols A/B/C”, the IC50 was < 10 nM. With `COc1cccc(Cc2csc(C(=O)c3cncnc3N[C@@H]3C[C@H](COS(N)(=O)=O)[C@@H](O)C3)c2)c1` [I-123, {(1R,2S,4R)-2-hydroxy-4-[(5-{[4-(3-methoxybenzyl)-2-thienyl]carbonyl}pyrimidin-4-yl)amino]cyclopentyl}methyl sulfamate], under “Concentration 0.111 μM”, the inhibition at 0.111 µM came to 96%. For the same compound, the IC50 (class symbols A/B/C) was < 10 nM. In the same order, the values of `Cc1oc(C(=O)c2cncnc2N[C@@H]2C[C@H](COS(N)(=O)=O)[C@@H](O)C2)cc1Cc1cccc(Cl)c1` [I-33, [(1R,2S,4R)-4-({5-[4-(3-chlorobenzyl)-5-methyl-2-furoyl]pyrimidin-4-yl}amino)-2-hydroxycyclopentyl]methyl sulfamate] are 100% and < 10 nM. On to `CN1Cc2ccc(Cl)cc2[C@@H]1c1cc(C(=O)c2cncnc2N[C@@H]2C[C@H](COS(N)(=O)=O)[C@@H](O)C2)sc1Cl` (single isomer, unassigned) [I-284a, [(1R,2S,4R)-4-{[5-({5-chloro-4-[(1R)-6-chloro-2-methyl-2,3-dihydro-1H-isoindol-1-yl]-2-thienyl}carbonyl)pyrimidin-4-yl]amino}-2-hydroxycyclopentyl]methyl sulfamate or [(1R,2S,4R)-4-{[5-({5-chloro-4-[(1S)-6-chloro-2-methyl-2,3-dihydro-1H-isoindol-1-yl]-2-thienyl}carbonyl)pyrimidin-4-yl]amino}-2-hydroxycyclopentyl]methyl sulfamate], for which, under setting [1], the “Percent Inhibition” value is given as 49%. Further, under setting [2], the IC50 was in the range of 100 to 1000 nM. In the case of `CN(C)Cc1sc(C(=O)c2cncnc2N[C@@H]2C[C@H](COS(N)(=O)=O)[C@@H](O)C2)cc1Cc1cccc(Cl)c1` [I-77, [(1R,2S,4R)-4-{[5-({4-(3-chlorobenzyl)-5-[(dimethylamino)methyl]-2-thienyl}carbonyl)pyrimidin-4-yl]amino}-2-hydroxycyclopentyl]methyl sulfamate], the inhibition at 0.111 µM (Concentration 0.111 μM) is 98%. In addition, for the setting “class symbols A/B/C”, the half-inhibitory concentration (IC50) is < 10 nM. In the case of `CC[C@H](C)[C@H](N)C(=O)O[C@H]1C[C@H](Nc2ncncc2C(=O)c2cc([C@@H]3OCCc4ccc(Cl)cc43)c(C)s2)C[C@@H]1COS(N)(=O)=O.Cl` [I-363, [(1S,2R,4R)-4-[[5-[4-[(1R)-7-chloroisochroman-1-yl]-5-methyl-thiophene-2-carbonyl]pyrimidin-4-yl]amino]-2-(sulfamoyloxymethyl)cyclopentyl (2S,3S)-2-amino-3-methyl-pentanoate hydrochloride], the concentration for half-maximal inhibition (IC50) under setting [2] was 100 to 1000 nM. In the case of `C[C@](N)(c1cccc(Br)c1)c1csc(C(=O)c2cncnc2N[C@@H]2C[C@H](COS(N)(=O)=O)[C@@H](O)[C@H]2O)c1` (single isomer, unassigned) [I-27b, [(1R,2R,3S,4R)-4-{[5-({4-[(1S)-1-amino-1-(3-bromophenyl)ethyl]-2-thienyl}carbonyl)pyrimidin-4-yl]amino}-2,3-dihydroxycyclopentyl]methyl sulfamate or [(1R,2R,3S,4R)-4-{[5-({4-[(1R)-1-amino-1-(3-bromophenyl)ethyl]-2-thienyl}carbonyl)pyrimidin-4-yl]amino}-2,3-dihydroxycyclopentyl]methyl sulfamate], the “Percent Inhibition” value (Concentration 0.111 μM) turned out to be 101. The half-inhibitory concentration (IC50) (class symbols A/B/C) was < 10 nM. On to `Cc1sc(C(=O)c2cncnc2N[C@@H]2C[C@H](COS(N)(=O)=O)[C@@H](O)C2)cc1[C@@H]1OCCc2cccnc21` (mixture of isomers) [I-285, [(1R,2S,4R)-4-{[5-({4-[(8S)-5,8-dihydro-6H-pyrano[3,4-b]pyridin-8-yl]-5-methyl-2-thienyl}carbonyl)pyrimidin-4-yl]amino}-2-hydroxycyclopentyl]methyl sulfamate and [(1R,2S,4R)-4-{[5-({4-[(8R)-5,8-dihydro-6H-pyrano[3,4-b]pyridin-8-yl]-5-methyl-2-thienyl}carbonyl)pyrimidin-4-yl]amino}-2-hydroxycyclopentyl]methyl sulfamate], for which the “Percent Inhibition” value under setting [1] is 100%. Moreover, the IC50 under setting [2] was < 10 nM.

`Cc1sc(C(=O)c2cncnc2N[C@@H]2C[C@H](COS(N)(=O)=O)[C@@H](O)C2)cc1Cc1cccc(Br)c1` [I-52, {(1R,2S,4R)-4-[(5-{[4-(3-bromobenzyl)-5-methyl-2-thienyl]carbonyl}pyrimidin-4-yl)amino]-2-hydroxycyclopentyl}methyl sulfamate]: the inhibition at 0.111 µM (Concentration 0.111 μM) was determined as 99%. For the same compound, where the note is “class symbols A/B/C”, the IC50 was < 10 nM. Take `NS(=O)(=O)OC[C@H]1C[C@@H](Nc2ncncc2C(=O)c2cc(Cc3cccc(Br)c3)cs2)C[C@@H]1O` [I-59, {(1R,2S,4R)-4-[(5-{[4-(3-Bromobenzyl)-2-thienyl]carbonyl}pyrimidin-4-yl)amino]-2-hydroxycyclopentyl}methyl sulfamate]: the inhibition at 0.111 µM (Concentration 0.111 μM) was 99%. On to `NS(=O)(=O)OC[C@H]1C[C@@H](Nc2ncncc2C(=O)c2cc([C@@H]3OCCc4c(Cl)cccc43)cs2)C[C@@H]1O` (single isomer, unassigned) [I-301a, [(1R,2S,4R)-4-{[5-({4-[(1R)-5-chloro-3,4-dihydro-1H-isochromen-1-yl]-2-thienyl}carbonyl)pyrimidin-4-yl]amino}-2-hydroxycyclopentyl]methyl sulfamate or [(1R,2S,4R)-4-{[5-({4-[(1S)-5-chloro-3,4-dihydro-1H-isochromen-1-yl]-2-thienyl}carbonyl)pyrimidin-4-yl]amino}-2-hydroxycyclopentyl]methyl sulfamate], for which the “Percent Inhibition” value under setting [1] turned out to be 40%. The IC50 under setting [2] was 100 to 1000 nM. For the compound `NS(=O)(=O)OC[C@H]1C[C@@H](Nc2ncncc2C(=O)c2cc([C@@]3(C4=CCCCC4)CCCO3)cs2)C[C@@H]1O` (mixture of isomers) [I-116, [(1R,2S,4R)-4-{[5-({4-[(2S)-2-(cyclohex-1-en-1-yl)tetrahydrofuran-2-yl]-2-thienyl}carbonyl)pyrimidin-4-yl]amino}-2-hydroxycyclopentyl]methyl sulfamate and [(1R,2S,4R)-4-{[5-({4-[(2R)-2-(cyclohex-1-en-1-yl)tetrahydrofuran-2-yl]-2-thienyl}carbonyl)pyrimidin-4-yl]amino}-2-hydroxycyclopentyl]methyl sulfamate], the “Percent Inhibition” value (Concentration 0.111 μM) worked out at 96. Moreover, the IC50 (class symbols A/B/C) is < 10 nM.
